The test system of assay [1] is BCE cells (actin filaments). As to the kind of experiment: Partial treatment of single BCE cells with a membrane-permeable actin disrupting drug in a two-component laminar flow stream. The class given is cell-based, Bovine. Particulars: for actin cytoskeleton after treatment (phalloidin Alexa 594 stain): about 10 min. How it is done: (§1) Bovine adrenal capillary endothelial (BCE) cells were cultured and harvested as described in D. E. Ingber & J. Folkman, J. Cell Biol., Vol. 109, pp. 317-330, 1989, incorporated herein by reference. In brief, cells were cultured under 10% CO2 on Petri dishes (Falcon) coated with gelatin in DMEM (GIBCO) containing 10% calf serum (CS), 2 mM glutamine, 100 μg/ml streptomycin, 100 μg/ml penicillin, and 1 ng/ml basic fibroblast growth factor (bFGF). Cells were dissociated from culture plates with trypsin/EDTA and washed in DMEM containing 1% wt/vol BSA (BSA/DMEM). These cells were suspended in chemically defined medium (10 μg/ml high density lipoprotein/5 μg/ml transferrin/5 ng/ml bFGF in BSA/DMEM) as described in D. E. Ingber, Proc. Natl. Acad. Sci. USA, Vol. 87, pp. 3579-3583 (1990), incorporated herein by reference, introduced into capillary networks (pretreated with 50 μg/ml fibronectin for 1 hr) from the inlet wells, and incubated in 10% CO2 at 37° C. for 4-6 hr to permit attachment and spreading upon the glass cover slip forming the bottom of the microchannel network. After the above incubation to allow for binding and attachment, non-adherent cells were removed by washing each of the flow channels with media (1% wt/vol. BSA/DMEM) for about 3 min. at a maximum bulk flow velocity of about 0.6 cm/s (Re<1).
Device fabrication and cell culture and attachment of BCE cells was performed as described above in Example 1. Creation and maintenance of flow in the channels and selection and observation of a BCE cell positioned straddling the interface of two components of the flow stream established in the main flow channel was performed in a similar fashion as described previously in Example 1.
In the present example, prior to selective treatment of a portion of a single BCE cell with a membrane-permeable actin disrupting drug, the BCE cells attached to the microfluidic network were uniformly exposed to media containing Mitotracker Green™ FM mitochondrial stain, as described in Example 2, in order to uniformly stain the mitochondria of each of the BCE cells in the microfluidic channels. Subsequent to mitochondrial staining, partial cell treatment with the actin disrupting drug was accomplished by filling right-most well 316 (see FIG. 3A) of the microfluidic channel network with media containing latrunculin A (1 μM in DMEM/10% CS). Similar media, except not including the latrunculin A, was added to inlet wells 312 and 314, and flow was maintained during the experiment as described previously in Example 1. […]

The subject of a further assay is BCE cells. As to the kind of experiment: Intracellular gradient formation of a membrane permeable nucleic acid binding dye in a single BCE cell. The class given is cell-based, Bovine. As to conditions: 60 μM Syto 9 in DMEM/10% CS over one portion of the cell, dye-free media over the other. How it is done: as §1, with “After the above incubation to allow for binding and attachment, non-adherent cells were removed by washing each of the flow channels with media (1% wt/vol. BSA/DMEM) for about 3 min. at a maximum bulk flow velocity of about 0.6 cm/s (Re<1).” left out
The flowing streams and attached BCEs were visualized utilizing a fluorescence inverted microscope, as illustrated in FIG. 3B. […]

Turning to `C/C1=C/C(=O)O[C@@H]2C[C@@H](CC[C@H](C)/C=C\C=C\CC1)O[C@@](O)([C@@H]1CSC(=O)N1)C2` [latrunculin A], in assay [1] (center cell, latrunculin A supplied to right-hand portion only, peripheral cell shape relatively unchanged), the “displacement of mitochondria and nucleus on local actin disruption” value was “caused the mitochondria and nucleus to shift towards the left”. Further, the “actin cytoskeleton after treatment (phalloidin Alexa 594 stain)” value in assay [1] (center cell, only right-hand part exposed to latrunculin A-containing media, 1 μM) was “greatest degree of actin disruption evident in its treated, right side portion”; in assay [1] (rightmost cell fully exposed to latrunculin A-containing media, 1 μM in DMEM/10% CS), “a substantial portion of the actin cytoskeleton appears, in the rightmost cell, to be depolymerized”. The “positions of the mitochondria (Mitotracker Green FM stained)” value in assay [1] (center cell, right-hand part exposed to 1 μM latrunculin A for 10 min) was “have shifted towards the left-hand (untreated) part of the cell”.
Consider Syto 9, for which the “time until intracellular diffusion reached approximately its steady state value” with BCE cells was “about 10 minutes”.

Source of the values: patent US6653089B2, “Differential treatment of selected parts of a single cell with different fluid components” (President and Fellows of Harvard College, priority 2000, dated 2003).
